# Patent US9801373B2, “Compounds for alleviating phosphate starvation symptoms in plants” (Commissariat a l'Energie Atomique et aux Energies …, priority 2012, dated 2017)
# What was measured:
# Format in all cases: in vivo, Arabidopsis thaliana
# [1] = test system: wild-type (WT) seedlings; assay: Primary root growth of wild-type seedlings; settings: for activity of PTN1 analogues (inhibitor activity of PHT1;4 expression and effect on the growth): WT seedlings, FIG. 6; for concentration at which active on primary root growth: −Pi
# Description: (§1) In the Pi deficient medium, NaCl (0.5 mM) was used to replace the equivalent amount of sodium provided by NaH2PO4. For controls of the effects of the compounds, 1% of DMSO (Dimethyl sulfoxid, SIGMA, 472301), solvent for the tested compounds, was added. After 2 days at 4° C., the plates were placed in a vertical position and plants were grown in a culture chamber under a 16 h light/8 h dark regime (24/21° C., 150 μE m^−2s^−1). For 4 weeks culture, large plates (24×24 cm) were placed in a horizontal position. Root architecture and aerial part area were quantified using program ImageJ.
# [2] = test system: lpr1, lpr2 and lpi mutants; assay: Primary root growth of mutants with reduced root sensitivity to Pi starvation; settings: 7-days-old plants, PTN1 40 μM, FIG. 8
# Excerpt: (§2) A “chemical genetics” approach has been carried out to isolate compounds that inhibit the phosphate (Pi) response in Arabidopsis thaliana. Compounds were screened for their ability to inhibit the expression of a phosphate starvation marker, namely the high affinity Pi transporter PHT1,4 gene. For the screening, the A. thaliana pht1;4-1 line (ecotype Wassilewskija) was chosen (Misson et al., 2004). It contains a T-DNA construct inserted into Pht1;4 gene creating a transcriptional fusion with a GUS reporter gene. For phenotypic analyses, A. thaliana Columbia and various lines derived from this ecotype were used. They are either transgenic lines expressing reporter gene as cycB1::GUS (Colón Carmona et al., 1999), MGD3::LUC, PHT1;4::LUC, At1g73010::LUC or various mutants affecting root response to low Pi such as: pdr2 (Ticconi et al., 2004), lpr1, lpr2 (Svistoonoff et al., 2007), lpi1, lpi2 and lpi3 (Sanchez-Calderon et al., 2006).
# In the Pi deficient medium, NaCl (0.5 mM) was used to replace the equivalent amount of sodium provided by NaH2PO4. For controls of the effects of the compounds, 1% of DMSO (Dimethyl sulfoxid, SIGMA, 472301), solvent for the tested compounds, was added. […] Root architecture and aerial part area were quantified using program ImageJ.
# [3] = test system: lpr1 mutant; assay: Shoot growth of lpr1 mutant; settings: −Pi, 28-days-old plants
# Description: as §1
# [4] = test system: PHT1;4 expression; assay: Chemical genetics screen, GUS staining of pht1;4-1 reporter line
# Excerpt: as §2
# For the screening, the LATCA collection of 3600 biologically active compounds (Zhao et al., 2007) was used at a final concentration of 25 μM in 1% DMSO. Four to five Arabidopsis seeds of pht1;4-1 (Misson et al., 2004) reporter line were sown in 96-well plates containing 100 μL liquid MS/10 medium with 500 μM of Pi at pH 5.7. After 2 days at 4° C., plants were grown for five days in a culture chamber under a 16 h light/8 h dark regime (24/21° C., 150 μE m^−2s^−1). Medium was then replaced by MS/10 with only 5 μM Pi and the tested compounds were added to the 96-well plates. […] Five days later, plantlets were analysed by GUS staining to assay the activity of the reporter gene inserted in pht1;4 gene. […] Then, plates were analysed using a MZ16 stereomicroscope (Leica microsystems, Germany).
# The GUS activity was detected as previously described by Jefferson et al. (1987), using a GUS staining solution containing 50 mM sodium phosphate buffer pH 7.0; 0.01% Triton X-100, 1 mM K3Fe(CN)6, 1 mM K4Fe(CN)6, 1 mg/ml 5-bromo-4-chloro-3-indolyl B-D-glucuronide (X-Gluc). […]
# [5] = test system: PHT1 genes (PHT1;4); assay: qPCR of PHT1 transcript level on root mRNA; settings: qPCR on root mRNA, FIG. 2 (B)
# Description: Plant RNA was extracted with the RNeasy kit (QIAGEN, France). For transcriptome data, RNA were analysed by the CATMA technology (Complete Arabidopsis Transcriptome Microarray). For qPCR, poly(dT) cDNA were prepared from 500 ng total RNA with Superscript III reverse transcriptase (Invitrogen, France) and analysed on a LightCycler 480 apparatus (Roche Diagnostics, France) with the SYBR Green I Master kit (Roche Diagnostics, France) according to the manufacturer's instructions. Targets were quantified with specific primer pairs designed with Primer3 website (http://frodo.wi.mit.edu/primer3/) (see Table II below). Biological triplicates were performed for all experiments. Expression levels were normalized using At2g16600, At3g04120, At1g35160 and At1g32050 genes.
structure (smiles),measurement,setting,value
Clc1ccc(SSc2ccc(Cl)cc2)cc1 [PTN4],primary root growth at various external Pi concentrations (15-250 uM),"[1]; 10 uM, 5 days on Pi rich medium then 24 hours on tested conditions, FIG. 7 (D)",improved root growth until 50/75 μM of Pi
same,activity of PTN1 analogues (inhibitor activity of PHT1;4 expression and effect on the growth),[1],Active
same,concentration at which active on primary root growth,[1]; FIG. 7 (A),10 µM
same,primary root growth of lpr1 or lpi mutants,[2],no additive effect
same,growth of the lpr1 rosette,[3],+25%
CS(=O)(=O)C1=C2C=CCCC2=C(C(=O)Sc2ccc(Cl)cc2)C1 [PTN2],toxicity as cause of reduced reporter gene expression,"[4]; 25 μM, 5 days on −Pi",not explained by toxicity
same,effect on PHT1;4 transcript level,[5],dose dependant manner
"Sc1ccc(Cl)cc1 [PTN3, 4-chlorothiophenol]",PHT1;4 expression (analogue test),[4]; 100 μM,repressed PHT1;4 expression
same,activity of PTN1 analogues (inhibitor activity of PHT1;4 expression and effect on the growth),[1],Active
same,primary root growth on −Pi,"[1]; WT, 7-day-old plantlets, FIG. 7 (A)",sustained also the primary root growth
same,concentration at which active on primary root growth,[1]; FIG. 7 (A),100 µM
